# Laboratory results reported in patent US12590338B2, “Method and device for detection of ampicillin-resistant non-typhoidal Salmonella” (priority 2018, dated 2026).
# System: NTS clinical isolates
# Assay: Antibiotics susceptibility test to ampicillin (CLSI disc inhibition zone and/or MIC); further: key: R = Resistant to ampicillin; S = Susceptible to ampicillin
# Type: cell-based, non-typhoidal Salmonella
# Method: Before the NGS study, the antimicrobial susceptibility to ampicillin in the 169 isolates was re-confirmed using the disc inhibition zones or MICs (FIG. 1). Then, the bacterial DNAs were extracted from 53 NTS isolates and NGS was performed using the Illumina© MiSeq sequencer. Subsequently, the NTS serotypes of 53 NTS clinical isolates were confirmed by multilocus sequence typing (MLST) as shown in Table 1. The big genomic data were analyzed to examine presence of plasmid-mediated genes or genetic mutations in the bacterial genome of Salmonella spp. and other bacteria reported in the PubMed, ARG-ANNOT, CARD, and ResFinder (FIG. 1).
# The 169 NTS clinical isolates were tested for antimicrobial susceptibility based on (CLSI) guidelines. Briefly, bacteria were spread onto Mueller-Hinton MH agar, and co-incubated with antimicrobial disks (Oxoid, Cambridge, UK) of ampicillin individually at 37° C. for 18 hours. Another alternative is measurement of the minimum inhibitory concentrations (MICs) of ampicillin in serial dilutions of ampicillin co-cultured with bacterial solution of NTS isolates. Finally, the resistance to ampicillin in NTS isolates was determined according to the diameter of inhibition zone (≤13 mm) and/or the MIC of ampicillin>16 μg/mL according to the guideline of CLSI.
smiles,measurement,setting,value
CC1(C)S[C@@H]2[C@H](NC(=O)[C@H](N)c3ccccc3)C(=O)N2[C@H]1C(=O)O [ampicillin],AMP-R,"NTS isolate SH-12, serotype Amsterdam",S
same,AMP-R,"NTS isolate SH-A1, serotype Enteritidis",S
same,AMP-R,"NTS isolate SH-B2, serotype Enteritidis",R
same,AMP-R,"NTS isolate SH-B5, serotype Enteritidis",R
same,AMP-R,"NTS isolate SH-C2, serotype Newport",S
same,AMP-R,"NTS isolate SH-C3, serotype Enteritidis",S
same,AMP-R,"NTS isolate SH-C4, serotype Typhimurium",R
same,AMP-R,"NTS isolate SH-D2, serotype Enteritidis",S
same,AMP-R,"NTS isolate SH-D4, serotype Enteritidis",S
same,AMP-R,"NTS isolate SH-D5, serotype Typhimurium",S
same,AMP-R,"NTS isolate SH-E1, serotype Unknown",R
same,AMP-R,"NTS isolate SH-E2, serotype Virchow",S
same,AMP-R,"NTS isolate SH-E3, serotype Newport",S
same,AMP-R,"NTS isolate SH-F4, serotype Typhimurium",R
same,AMP-R,"NTS isolate SH-F5, serotype Enteritidis",R
same,AMP-R,"NTS isolate SH-G1, serotype Stanley",S
same,AMP-R,"NTS isolate SH-G2, serotype Typhimurium",R
same,AMP-R,"NTS isolate SH-G3, serotype Enteritidis",R
same,AMP-R,"NTS isolate SH-G5, serotype Albany",R
same,AMP-R,"NTS isolate SH-H3, serotype Derby",S
same,AMP-R,"NTS isolate SH-H4, serotype Newport",R
same,AMP-R,"NTS isolate TSAR-C1, serotype Schwarzengrund",R
same,AMP-R,"NTS isolate TSAR-C2, serotype Schwarzengrund",R
same,AMP-R,"NTS isolate TSAR-C3, serotype Schwarzengrund",R
same,AMP-R,"NTS isolate TSAR-C4, serotype Typhimurium",R
same,AMP-R,"NTS isolate TSAR-C5, serotype Choleraesuis",R
same,AMP-R,"NTS isolate TSAR-C6, serotype Typhimurium",R
same,AMP-R,"NTS isolate TSAR-C7, serotype Typhimurium",R
same,AMP-R,"NTS isolate TSAR-C10, serotype Enteritidis",R
same,AMP-R,"NTS isolate TSAR-C13, serotype Stanley",R
same,AMP-R,"NTS isolate TSAR-C16, serotype Typhimurium",R
same,AMP-R,"NTS isolate TSAR-C19, serotype Stanley",R
same,AMP-R,"NTS isolate TSAR-E5, serotype Choleraesuis",R
same,AMP-R,"NTS isolate TSAR-E9, serotype Choleraesuis",R
same,AMP-R,"NTS isolate TSAR-E10, serotype Typhimurium",R
same,AMP-R,"NTS isolate TSAR-E16, serotype Virchow",R
same,AMP-R,"NTS isolate TSAR-E18, serotype Meleagridis",R
same,AMP-R,"NTS isolate TSAR-E19, serotype Newport",R
same,AMP-R,"NTS isolate TSAR-E20, serotype Typhimurium",R
same,AMP-R,"NTS isolate TSAR-N5, serotype Typhimurium",R
same,AMP-R,"NTS isolate TSAR-N8, serotype Typhimurium",R
same,AMP-R,"NTS isolate TSAR-N9, serotype Montevideo",R
same,AMP-R,"NTS isolate TSAR-N15, serotype Schwarzengrund",R
same,AMP-R,"NTS isolate TSAR-N16, serotype Agona",R
same,AMP-R,"NTS isolate TSAR-N19, serotype Enteritidis",R
same,AMP-R,"NTS isolate TSAR-S13, serotype Albany",R
same,AMP-R,"NTS isolate TSAR-S14, serotype Typhimurium",R
same,AMP-R,"NTS isolate TSAR-S15, serotype Enteritidis",R
same,AMP-R,"NTS isolate TSAR-S16, serotype Agona",R
same,AMP-R,"NTS isolate TSAR-S17, serotype Newport",R
same,AMP-R,"NTS isolate TSAR-S18, serotype Newport",R
same,AMP-R,"NTS isolate TSAR-S19, serotype Agona",R
same,AMP-R,"NTS isolate TSAR-S20, serotype Livingstone",R
